PMC5700102, “Primer synthesis by a eukaryotic-like archaeal primase is independent of its Fe-S cluster” (Nature Communications, 2017)

Molecular target: T1, PriSLX (Saccharolobus solfataricus, UniProt Q97Z83+Q97ZS7)
T1 construct: gene priS; heterotrimer co-expressed in E. coli Rosetta2(DE3) from pETDuet PriL/PriS and pRSFDuet PriX; no tag mentioned; PriL 307 and PriX 154 residues; with DNA primase large subunit PriL
T1 sequence (Q97Z83 1-330): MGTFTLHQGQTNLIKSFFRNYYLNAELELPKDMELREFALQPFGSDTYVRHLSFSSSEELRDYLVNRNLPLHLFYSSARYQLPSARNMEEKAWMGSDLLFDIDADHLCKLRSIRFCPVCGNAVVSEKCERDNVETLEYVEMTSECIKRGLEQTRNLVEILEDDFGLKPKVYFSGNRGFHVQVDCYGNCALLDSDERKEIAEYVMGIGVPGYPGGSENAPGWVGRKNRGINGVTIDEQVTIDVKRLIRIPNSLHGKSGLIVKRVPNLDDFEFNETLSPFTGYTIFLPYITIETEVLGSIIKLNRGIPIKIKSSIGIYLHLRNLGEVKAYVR
T1 sequence (Q97ZS7 1-154): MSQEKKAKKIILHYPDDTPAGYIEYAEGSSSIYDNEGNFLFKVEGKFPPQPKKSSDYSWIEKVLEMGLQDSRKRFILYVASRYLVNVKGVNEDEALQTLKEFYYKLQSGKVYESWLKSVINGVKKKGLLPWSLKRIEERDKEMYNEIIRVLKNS
T1 sequence (Q9UWW1 1-307 partner): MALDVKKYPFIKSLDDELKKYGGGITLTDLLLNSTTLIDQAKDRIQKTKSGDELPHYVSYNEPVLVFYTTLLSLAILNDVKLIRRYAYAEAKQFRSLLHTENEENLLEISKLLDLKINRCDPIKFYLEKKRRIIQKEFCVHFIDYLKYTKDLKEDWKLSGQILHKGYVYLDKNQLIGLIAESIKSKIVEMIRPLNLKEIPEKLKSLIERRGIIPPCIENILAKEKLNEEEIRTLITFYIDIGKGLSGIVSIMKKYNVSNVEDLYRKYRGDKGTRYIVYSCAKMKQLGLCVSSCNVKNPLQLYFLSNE
Experiment: X-ray crystal structure, […] Å
Assay type: binding
Conditions: two molecules bound: PriS active site (elongation site) and PriX initiation site at the PriX-PriS interface; MnCl2

Nc1ncnc2c1ncn2[C@@H]1O[C@H](COP(=O)(O)CP(=O)(O)OP(=O)(O)O)[C@@H](O)[C@H]1O [AMPCPP]
X-ray crystal structure, 2.9 Å: The first AMPCPP was bound in the active site of PriS
